# Results published in patent publication EP0002933A1, “Method for assessing cancerous malignancy or benignity and diagnostic pack for use therein” (Gosalvez, Mario Gosalvez, priority 1977, dated 1979).
# How the values were obtained:
# pyruvate kinase [1] = test: ATP inhibition of pyruvate kinase in cell homogenates (compound optical assay, NADH at 340 mµ); format: biochemical
# Description: (§1) In more detail, the theoretical basis of this new method is as follows. -The step-wise degradation of glucose to pyruvic acid, according to the well-known Embden-Myerhof pathway, includes the reaction: [drawing 3] wherein ADP and ATP are, respectively, adenosine diphosphate and adenosine triphosphate. In healthy cells this reaction is suppressed by ATP inhibition of the enzyme pyruvate kinase. I have discovered, as previously noted, that in cancerous cells the reaction proceeds in greater or less degree, correlative to the degree of malignancy, in proportion to the extent to which ATP fails to inhibit pyruvate kinase activity. A preferred assay, therefore, involves assessment of the progress of the foregoing reaction in the presence of various levels of ATP calculated to reveal the extent, if any, by which sample-derived pyruvate kinase activity is inhibited by ATP. The extent of such inhibition can be characterised on a percentage scale relative to the foregoing reaction, taking 0% as no inhibition, 100% as total inhibition, and "maximum percent inhibition of pyruvate kinase activity" as that point on the scale beyond which addition of further ATP essentially fails to affect further the progress of the reaction.
# (§2) An especially preferred method of following the reaction spectrophotometrically involves compound optical assay, in which the influence of the reaction under study on a secondary reaction with an observable end product is followed. See Felu, FEBS Letters 50, 334 (1975) and Bucher, T. et al., in : Methods in Enzymology, Vol. I (S.P. Colowick and N.O. Kaplan, eds.) Academic Press, N.Y. p. 435. Thus, in the compound reaction: [drawing 4] pyruvate kinase activity can be monitored by observing the rate of disappearance of the band (at 340 m µ) of the hydrogen donor NADH (nicotinamide adenine dinucleotide, reduced form). Successive repetitions of the assay with differing amounts of added ATP establish the point beyond which ATP addition fails to influence the rate of disappearance of the hydrogen donor.
# Samples for assay may be obtained as whole tissue (e.g., of volume 1-10 mm^3) in the case of suspected tumours, by intraoperatorybiopsy or needle biopsy. In the case of suspected blood malignancies, the collection of white blood cells by differential centrifugation is sufficient. Samples are preserved on ice pending the preparation of homogenates suitable for assay. Homogenisation frees cell-contained pyruvate kinase for assay and involves cell disruption by conventional techniques which avoid, to a useful degree, the destruction of nuclei, mitochondria and other cell particulates. Typically, the sample may be placed in a hand homogeniser which is supplied with the assay kit, in buffered isotonic solution, and homogenised with several strokes of a pestle. From, e.g., 0.1 to 1 ml of buffered solution, depending on the size of the sample, is preferably employed. As one of many appropriate buffers may be mentioned a solution comprising 50 mM Tris-HC1, pH 7.0, 0.1 mM EDTA and 0.5 mM dithioerythritol. In the preferred embodiment of the invention the homogenate is next centrifuged, for example at about 5,000-10,000 rpm in a conical centrifuge tube for 10 minutes, and the supernatant is dialysed against water (e.g., for 2 hours at about 2-4°C.). The contents of the dialysis bag are then transferred to a tube immersed in ice. In the case of large samples, the centrifugation and dialysis steps may be omitted, as will be appreciated by the art-skilled. Preferably, however, a dialysis bag is supplied with the kit. As used herein, the term "homogenate" refers to a free enzyme-containing product of homogenisation, whether or not accompanied by other cellular debris. […]
# pyruvate kinase [2] = test: as above; format: biochemical, Mouse
# Description: as §1, §2
# Samples for assay may be obtained as whole tissue (e.g., of volume 1-10 mm^3) in the case of suspected tumours, by intraoperatorybiopsy or needle biopsy. In the case of suspected blood malignancies, the collection of white blood cells by differential centrifugation is sufficient. Samples are preserved on ice pending the preparation of homogenates suitable for assay. Homogenisation frees cell-contained pyruvate kinase for assay and involves cell disruption by conventional techniques which avoid, to a useful degree, the destruction of nuclei, mitochondria and other cell particulates. Typically, the sample may be placed in a hand homogeniser which is supplied with the assay kit, in buffered isotonic solution, and homogenised with several strokes of a pestle. […]
smiles,measurement,setting,value
"Nc1ncnc2c1ncn2[C@@H]1O[C@H](COP(=O)(O)OP(=O)(O)OP(=O)(O)O)[C@@H](O)[C@H]1O [ATP, adenosine triphosphate]",MAXIMUM % INHIBITION OF PYRUVATE KINASE BY ATP,"pyruvate kinase [1]; Acute lympho-blastic leukaemia, Human, Moderately malign",32%
same,MAXIMUM % INHIBITION OF PYRUVATE KINASE BY ATP,"pyruvate kinase [1]; Cerebral ependonoma, Human, Benign",40%
same,MAXIMUM % INHIBITION OF PYRUVATE KINASE BY ATP,"pyruvate kinase [1]; Glioma, Human, Malign",15%
same,MAXIMUM % INHIBITION OF PYRUVATE KINASE BY ATP,"pyruvate kinase [1]; Mammary carcinoma, Human, Malign",17%
same,MAXIMUM % INHIBITION OF PYRUVATE KINASE BY ATP,"pyruvate kinase [1]; Mammary fibro-adenoma, Rat, Very benign",49%
same,MAXIMUM % INHIBITION OF PYRUVATE KINASE BY ATP,"pyruvate kinase [1]; Multiform glioma, Human, Very malign",4%
same,MAXIMUM % INHIBITION OF PYRUVATE KINASE BY ATP,"pyruvate kinase [1]; Normal liver, Human, No cell growth",99%
same,MAXIMUM % INHIBITION OF PYRUVATE KINASE BY ATP,"pyruvate kinase [1]; Normal tissue, Rat, No cell growth",99%
same,MAXIMUM % INHIBITION OF PYRUVATE KINASE BY ATP,"pyruvate kinase [1]; Ovarian carcinoma, Human, Malign",10%
same,MAXIMUM % INHIBITION OF PYRUVATE KINASE BY ATP,"pyruvate kinase [1]; Walter Carcino-sarcoma, Rat, Malign",22%
same,MAXIMUM % INHIBITION OF PYRUVATE KINASE BY ATP,"pyruvate kinase [2]; Erhlich ascites (Paris strain), Mouse, Very high growth rate",4%
same,MAXIMUM % INHIBITION OF PYRUVATE KINASE BY ATP,"pyruvate kinase [2]; Erhlich ascites tumour (Rome Strain), Mouse, Slow growth rate",39%
same,MAXIMUM % INHIBITION OF PYRUVATE KINASE BY ATP,"pyruvate kinase [2]; Leukaemia 1210, Mouse, Very malign",16%
same,MAXIMUM % INHIBITION OF PYRUVATE KINASE BY ATP,"pyruvate kinase [2]; Leukaemia P-P388, Mouse, Malign",25%
